From patent US8846012B2, “Melanin production inhibitor” (Pola Chemical Industries Inc., priority 2008, dated 2014)
Converted amounts (≈) assume the structure as drawn. Where two headings read alike, the source gives them in different places.

What was measured:
[1] = system: normal human melanocytes; assay: Melanin production inhibition test using cultured normal human melanocytes (14C-thiouracil incorporation); assay type: cell-based; details: Homo sapiens, Melanocyte; for activity at 5 µM: addition amount 5.0 μM
Description: The inhibitory effect on melanin production of the melanin production inhibitor of the present invention can be measured using thiouracil which is incorporated specifically into cells in a melanin synthesis process in the cells. For example, the amount of melanin production can be measured by measuring an amount of thiouracil incorporated into cells by measuring an amount of radiation with radiolabeled thiouracil.
The inhibitory effect on melanin production of Compound 1 was evaluated using 2-thiouracil (^14C-labeled 2-thiouracil was used in this test) which is incorporated specifically into melanin in an intracellular melanin synthesis process. Complete medium for culture of melanocytes (manufactured by Kurabo Industries Ltd.) was added to 15 wells in a 24-well plate in an amount of 2 mL per well, and normal human melanocytes (manufactured by Kurabo Industries Ltd.) were seeded into the wells at a concentration of 1.5×10^4 cells/cm^2. The cells were cultured in a 5% carbon dioxide atmosphere at 37° C. for 24 hours. Thereafter, the medium in all the wells was exchanged under the following conditions: fresh complete medium for culture of melanocytes (control) was used in three wells; each of complete medium for culture of melanocytes, which including Compound 1 at concentrations of 1.0 μM, 2.0 μM, and 4.0 μM, was used in a total of nine wells including three wells for each concentration; and complete medium for culture of melanocytes, each of which including arbutin (positive control) known as a melanin production inhibitor at a concentration of 0.5 mM (500 μM), was used in the other three wells. Further, 2-[2-^14C]thiouracil (^14C-labeled thiouracil) was added to each of these 15 wells at 0.25×10^−6 Ci (curie). Then, the cells were cultured for further 3 days under the same conditions as the above. After the completion of culture, the culture medium was removed from the wells, and the cells were washed with phosphate buffered physiological saline (PBS) and then separated from the bottoms of the wells with medium including trypsin and EDTA to prepare cell suspensions, followed by centrifugation to collect the cells. The number of the cells was counted using a hemocytometer. Thereafter, the amounts of ^14C-thiouracil in the cells collected from each well (0.25×10^−6 Ci) were measured using a liquid scintillation counter (ALOKA CO., LTD.). The percentages of an amount of radioactivity in the cells cultured in the medium including the test substances with respect to an amount of radioactivity in the cells collected from the well of the control were calculated as amounts of melanin (%). That is, as the amount of radioactivity incorporated into the cells is smaller, the amount of melanin is evaluated to be smaller, i.e., the melanin inhibition effect of the component added is evaluated to be larger.
Inhibitory effects on melanin production of Compounds 2 to 39 (however, the effects of Compound 9 and 15 were not measured) were examined in the same procedure as in Test Example 1.
These were examined in the same procedure as in Test Example 1.
Further, the results of melanin production inhibition by treatment with the respective test compounds, determined in the same procedure as in Test Example 1, are also shown in the table.

[2] = system: ultraviolet ray-induced pigmentation; assay: Ultraviolet ray-induced pigmentation inhibition test using pigmented guinea pigs; assay type: in vivo; details: for ΔL* value: 1% (w/v) in ethanol, 30 μL once a day for 6 weeks, L* day 57 minus L* day 15, mean ± SD of eight animals; for inhibition of pigmentation induced by ultraviolet rays (in words): applied to the skin at a concentration of 1%
Source text: The hair of the dorsal skin of each of eight pigmented guinea pigs was removed and shaved using an electrical hair clipper and shaver, and each of the sites was covered with a black cloth having a total of four (two on the top and bottom and two on the right and left) irradiation windows with a size of 2×2 cm, and then irradiated with ultraviolet rays of 300 mJ/cm^2 using FL20S•E30 lamp as a light source. This operation was repeated on days 1, 3, 5, 8, 10, and 12 after the start of the test to induce pigmentation on the four test sites.
Compound 2, Compound 3, and Compound 4 were dissolved in ethanol at a concentration of 1% (w/v) to prepare samples for application. Further, as a control, ethanol was used alone as a sample for application.
On day 15 of the test, application of the samples was started. The respective samples were applied to the predetermined test sites once a day in an amount of 30 μL, and the application was continued for 6 weeks (until day 56 of the test).
On the day of the start of application (day 15 of the test) and after the completion of application for 6 weeks (on day 57 of the test), the skin brightness (L* value) of each of the test sites was measured using a colorimeter (CR-200, Konica Minolta Holdings, Inc.), and a ΔL* value was calculated by subtracting an L* value on day 15 of the test from an L* value on day 57 of the test. […] As degree of the pigmentation becomes stronger, the L* value becomes smaller. Therefore, it can be evaluated that, as the ΔL* value becomes larger, pigmentation is more inhibited.

[3] = system: Trichopyton mentagrophytes (ATCC18748); assay: Measurement of antimycotic activity (Alamar Blue growth inhibition of dermatophytes); assay type: cell-based; details: for MIC80: read-out: MIC80 Concentration
Description: 10.4 g of RPMI1640 (manufactured by SAFC Biosciences) were dissolved in 900 mL of distilled water, and 34.53 g of a 0.165 M MOPS buffer (manufactured by DOJINDO LABORATORIES) were added and dissolved by stirring.
Dermatophytes (Trichopyton mentagrophytes (ATCC18748)) were inoculated into a 1/10 Sabouraud Dextrose agar medium (manufactured by DIFCO) and cultured at 28° C. for 14 days, and then a conidial suspension was prepared using 0.1% Tween80-including physiological saline. The suspension was filtered through gauze, and the number of the conidia was counted using a hemocytometer and then adjusted to 2.5×10^5/mL with the RPMI1640 medium. The resultant suspension was used as an inoculum.
Compound 5 and clotrimazole were diluted with the RPMI1640 medium to prepare 0.3125, 0.625, 1.25, 2.5, 5, 10, 20, and 200 μg/mL diluted solutions. The diluted solutions having different concentrations were dispensed into a 96-well flat-bottom microplate in an amount of 100 μL per well, and 80 μL of the inoculum and 20 μL of an Alamar Blue solution (manufactured by Nalgene) were further added thereto. Further, 80 μL of the inoculum and 20 μL of the Alamar Blue solution were added to 100 μL of the RPMI1640 medium in growth control wells, and 20 μL of the Alamar Blue solution was added to 180 μL of the RPMI1640 medium in negative control wells. The microplate was placed in a chamber in which the humidity was kept constant, and culture was started at 27° C., and the cells were observed every 24 hours. 120 hours from beginning of culture, i.e., when the growth control became obviously red (reduced form), absorbance measurement at 570 nm was performed using a microplate reader (SPECTRAMAX 250, manufactured by Molecular Device).
The test compounds were tested at the respective concentrations in triplicate. The growth inhibition rate (%) of each of the test compound-added groups was determined by the following equation based on a value calculated by subtracting an average absorbance value of the negative control from an average absorbance value of the growth control and the test compound-added wells. Further, […] (minimum inhibitory concentration; the minimum concentration at which the growth inhibition rate is 80% or more) was calculated from the growth inhibition rate of each test compound. Growth inhibition rate (%)=[1−(average absorbance value in test compound-added wells-average absorbance value of negative control)/(average absorbance value of growth control-average absorbance value of negative control)]×100
Compound 1, Compounds 3 to 6, Compound 40, Compound 41, triphenylmethylamine, triphenylmethanol, triphenylmethane, aminodiphenylmethane, and clotrimazole were diluted with the RPMI1640 medium to prepare 0.3125, 0.625, 1.25, 2.5, 5, 10, 20, and 200 μg/mL diluted solutions. The diluted solutions having different concentrations were dispensed into a 96-well flat-bottom microplate in an amount of 100 μl, per well, and 80 μL of the inoculum and 20 μl, of an Alamar Blue solution (manufactured by Nalgene) were further added thereto. Further, 80 μl, of the inoculum and 20 μl, of the Alamar Blue solution were added to 100 μL of the RPMI1640 medium in growth control wells, and 20 μL of the Alamar Blue solution was added to 180 μL of the RPMI1640 medium in negative control wells. The microplate was placed in a chamber in which the humidity was kept constant, and then culture was started at 27° C., and the cells were observed every 24 hours. 120 hours from beginning of culture, i.e., when the growth control became obviously red (reduced form), absorbance measurement at 570 nm was performed using a microplate reader (SPECTRAMAX 250, manufactured by Molecular Device).
The test compounds were tested at the respective concentrations in triplicate. […]

[4] = minimum concentration at which the growth inhibition rate is 80% or more

MIC80 [3, 4] | MIC80 Concentration [3, 4] | SMILES | activity at 5 µM ([1]; Table 2, control = 100%) | ΔL* value [2] | inhibition of pigmentation induced by ultraviolet rays (in words) [2] | activity at 10 µM ([1]; Table 7, treatment concentration 10 μM, read-out: Amount of melanin) | growth inhibitory effect on Trichopyton mentagrophytes (in words) ([3]; added at a concentration of 100 μg/mL) | activity at 2 µM ([1]; Table 7, treatment concentration 2 μM, read-out: Amount of melanin) | activity at 2 µM ([1]; Table 2, addition amount 2.0 μM, control = 100%)
– | – | OCCOC(c1ccccc1)(c1ccccc1)c1ccccc1 [Compound 2, 2-(triphenylmethyloxy)ethanol] | 44 ± 3.2% | 3.9 ± 0.94 | obviously inhibited pigmentation induced by ultraviolet rays | – | – | – | –
> 100 µg/mL | – | OCCNC(c1ccccc1)(c1ccccc1)c1ccccc1 [Compound 3, 2-(triphenylmethylamino)ethanol] | 51.6 ± 4.2% | 3.9 ± 0.52 | obviously inhibited pigmentation induced by ultraviolet rays | 22.3 ± 0.63% | no growth inhibitory effect | – | –
100 µg/mL (≈ 330 µM) | 100.0000 µg/mL (≈ 330 µM) | NCCOC(c1ccccc1)(c1ccccc1)c1ccccc1 [Compound 4, 2-(triphenylmethyloxy)ethylamine] | – | 3.4 ± 0.8 | obviously inhibited pigmentation induced by ultraviolet rays | – | – | 34.2 ± 3.58% | 33.8 ± 0.8%
